Measured values: patent US20260226025A1, “PHARMACEUTICALLY ACCEPTABLE SALT AND CRYSTAL FORM OF TRIAZOLE COMPOUND, AND PREPARATION METHOD THEREFOR” (JIANGSU HENGRUI PHARMACEUTICALS CO., LTD., priority 2023, published 2026)
Values belong to the compound of their own block, whether it stands above or below them.

Tests used:
Assay type in all cases: physicochemical
[1] = DVS (dynamic vapor sorption) hygroscopicity test
Experimental: The MS analyses were performed using an Agilent 1200/1290 DAD-6110/6120 Quadrupole MS liquid chromatography-mass spectrometry system (manufacturer: Agilent; MS model: 6110/6120 Quadrupole MS), waters ACQuity UPLC-QD/SQD (manufacturer: waters; MS model: waters ACQuity Qda Detector/waters SQ Detector), and THERMO Ultimate 3000-Q Exactive (manufacturer: THERMO; MS model: THERMO Q 15 Exactive). The HPLC analyses were performed using an Agilent 1260DAD high pressure liquid chromatograph (Sunfire C18 150×4.6 mm chromatography column) and a Thermo U3000 high pressure liquid chromatograph (Gimini C18 150× 4.6 mm chromatography column). XRPD refers to X-ray powder diffraction: The analysis was performed using a BRUKER D8 X-ray diffractometer; specific acquisition information: a Cu anode (40 kV, 40 mA), ray: monochromatic Cu-Ka ray (1=1.5418 Å). Scan mode: θ/2θ; scan range: 3-48°. DSC refers to differential scanning calorimetry: The analysis was performed using a METTLER TOLEDO DSC 3+ differential scanning calorimeter, with a temperature ramp rate of 10° C./min, specific temperature ranges shown in corresponding patterns (mostly 25° C.-300° C.), and a nitrogen purge speed of 50 mL/min. TGA refers to thermogravimetric analysis: The analysis was performed using a METTLER TOLEDO TGA 2 thermogravimetric analyzer, with a temperature ramp rate of 10° C./min, specific temperature ranges shown in corresponding patterns (mostly 30° C.-400° C.), and a nitrogen purge speed of 50 mL/min. DVS refers to dynamic vapor sorption: Surface Measurement Systems instrinsic was adopted; the humidity started at 50%, the humidity range of the investigation was 0%-95%, and the humidity was increased in increments of 10%; the criterion was as follows: each gradient mass change dM/dT≤0.002%; TMAX 360 min, two cycles.

[2] = Influencing factor stability study (open containers; light, high temperature, high humidity); conditions: for physical and chemical stability (conclusion): standing for 1 month, influencing factor conditions
Experimental: Samples of the free-state crystal forms A and B of the compound represented by formula I were spread in open containers and left to stand under light exposure (4500 Lux), high temperature (40° C. and 60° C.), and high humidity (RH 75% and RH 93%) conditions for 1 month to study their stability.
Samples of the crystal forms I and II of the sodium salt of the compound represented by formula I were spread in open containers and left to stand under light exposure (4500 Lux), high temperature (40° C. and 60° C.), and high humidity (RH 75%) conditions for 1 month to study their stability.

[3] = Long-term/accelerated stability; conditions: for physical and chemical stability (conclusion): long-term accelerated conditions for 6 months
[4] = accelerated experimental conditions, 70% RH
[5] = normal storage conditions, 25° C. and 60% RH
[6] = 25° C./60% RH, 1 month, listed as Free-state crystal form A
[7] = 25° C./60% RH, 2 months, listed as Free-state crystal form A
[8] = 25° C./60% RH, 3 months, listed as Free-state crystal form A
[9] = 25° C./60% RH, 6 months, listed as Free-state crystal form A
[10] = 40° C./75% RH, 1 month, listed as Free-state crystal form A
[11] = 40° C./75% RH, 2 months, listed as Free-state crystal form A
[12] = 40° C./75% RH, 3 months, listed as Free-state crystal form A
[13] = 40° C./75% RH, 6 months, listed as Free-state crystal form A
[14] = Initial, 0, listed as Free-state crystal form A
[15] = 25° C./60% RH, 1 month, listed as Free-state crystal form B
[16] = 25° C./60% RH, 2 months, listed as Free-state crystal form B
[17] = 25° C./60% RH, 3 months, listed as Free-state crystal form B
[18] = 25° C./60% RH, 6 months, listed as Free-state crystal form B
[19] = 40° C./75% RH, 1 month, listed as Free-state crystal form B
[20] = 40° C./75% RH, 2 months, listed as Free-state crystal form B
[21] = 40° C./75% RH, 3 months, listed as Free-state crystal form B
[22] = 40° C./75% RH, 6 months, listed as Free-state crystal form B
[23] = Initial, 0, listed as Free-state crystal form B

- hygroscopic weight gain [1, 4]: about 0.20%
- crystal form re-identified after the DVS test [1]: its crystal form did not change
- hygroscopic weight gain ([1]; extreme conditions, 90% RH): about 0.37%
- hygroscopic weight gain [1, 5]: about 0.17%
- Crystal form ([2]; 40° C., 1 month): Crystal form A
- Purity % ([2]; 40° C., 1 month): 98.6%
- Crystal form ([2]; 40° C., 7 days): Crystal form A
- Purity % ([2]; 40° C., 7 days): 98.6%
- Crystal form ([2]; 40° C., 14 days): Crystal form A
- Purity % ([2]; 40° C., 14 days): 98.6%
- Crystal form ([2]; 60° C., 1 month): Crystal form A
- Purity % ([2]; 60° C., 1 month): 98.6%
- Crystal form ([2]; 60° C., 7 days): Crystal form A
- Purity % ([2]; 60° C., 7 days): 98.6%
- Crystal form ([2]; 60° C., 14 days): Crystal form A
- Purity % ([2]; 60° C., 14 days): 98.6%
- Crystal form ([2]; 75% RH, 1 month): Crystal form A
- Purity % ([2]; 75% RH, 1 month): 98.6%
- Crystal form ([2]; 75% RH, 7 days): Crystal form A
- Purity % ([2]; 75% RH, 7 days): 98.6%
- Crystal form ([2]; 75% RH, 14 days): Crystal form A
- Purity % ([2]; 75% RH, 14 days): 98.6%
- Crystal form ([2]; 93% RH, 1 month): Crystal form A
- Purity % ([2]; 93% RH, 1 month): 98.6%
- Crystal form ([2]; 93% RH, 7 days): Crystal form A
- Purity % ([2]; 93% RH, 7 days): 98.6%
- Crystal form ([2]; 93% RH, 14 days): Crystal form A
- Purity % ([2]; 93% RH, 14 days): 98.6%
- Crystal form ([2]; 4500 Lux, 1 month): Crystal form A
- Purity % ([2]; 4500 Lux, 1 month): 97.0%
- Crystal form ([2]; 4500 Lux, 7 days): Crystal form A
- Purity % ([2]; 4500 Lux, 7 days): 98.3%
- Crystal form ([2]; 4500 Lux, 14 days): Crystal form A
- Purity % ([2]; 4500 Lux, 14 days): 98.1%
- Crystal form ([2]; Initial, 0 days): Crystal form A
- Purity % ([2]; Initial, 0 days): 98.6%
- physical and chemical stability (conclusion) [2]: good physical and chemical stability
- Crystal form [3, 6]: Crystal form A
- Purity % [3, 6]: 98.6%
- Crystal form [3, 7]: Crystal form A
- Purity % [3, 7]: 98.6%
- Crystal form [3, 8]: Crystal form A
- Purity % [3, 8]: 98.6%
- Crystal form [3, 9]: Crystal form A
- Purity % [3, 9]: 98.6%
- Crystal form [3, 10]: Crystal form A
- Purity % [3, 10]: 98.6%
- Crystal form [3, 11]: Crystal form A
- Purity % [3, 11]: 98.6%
- Crystal form [3, 12]: Crystal form A
- Purity % [3, 12]: 98.6%
- Crystal form [3, 13]: Crystal form A
- Purity % [3, 13]: 98.6%
- Crystal form [3, 14]: Crystal form A
- Purity % [3, 14]: 98.6%
- physical and chemical stability (conclusion) [3]: good physical and chemical stability
Compound: COCc1ccnc(OCc2c(-c3ccc(O[C@H]4C[C@@H]5CC[C@H](C(=O)O)[C@@H]5C4)c(C)n3)nnn2C)n1 [Crystal form A, (1S,3aS,5S,6aR)-5-((6-(5-(((4-(methoxymethyl)pyrimidin-2-yl)oxy)methyl)-1-methyl-1H-1,2,3-triazol-4-yl)-2-methylpyridin-3-yl)oxy) octahydropentalene-1-carboxylic acid]

- hygroscopic weight gain [1, 4]: about 0.31%
- crystal form re-identified after the DVS test [1]: its crystal form did not change
- hygroscopic weight gain ([1]; extreme conditions, 90% RH): about 0.64%
- hygroscopic weight gain [1, 5]: about 0.25%
- Crystal form ([2]; 40° C., 1 month): Crystal form B
- Purity % ([2]; 40° C., 1 month): 97.7%
- Crystal form ([2]; 40° C., 7 days): Crystal form B
- Purity % ([2]; 40° C., 7 days): 97.7%
- Crystal form ([2]; 40° C., 14 days): Crystal form B
- Purity % ([2]; 40° C., 14 days): 97.7%
- Crystal form ([2]; 60° C., 1 month): Crystal form B
- Purity % ([2]; 60° C., 1 month): 97.7%
- Crystal form ([2]; 60° C., 7 days): Crystal form B
- Purity % ([2]; 60° C., 7 days): 97.7%
- Crystal form ([2]; 60° C., 14 days): Crystal form B
- Purity % ([2]; 60° C., 14 days): 97.7%
- Crystal form ([2]; 75% RH, 1 month): Crystal form B
- Purity % ([2]; 75% RH, 1 month): 97.7%
- Crystal form ([2]; 75% RH, 7 days): Crystal form B
- Purity % ([2]; 75% RH, 7 days): 97.7%
- Crystal form ([2]; 75% RH, 14 days): Crystal form B
- Purity % ([2]; 75% RH, 14 days): 97.7%
- Crystal form ([2]; 93% RH, 1 month): Crystal form B
- Purity % ([2]; 93% RH, 1 month): 97.7%
- Crystal form ([2]; 93% RH, 7 days): Crystal form B
- Purity % ([2]; 93% RH, 7 days): 97.7%
- Crystal form ([2]; 93% RH, 14 days): Crystal form B
- Purity % ([2]; 93% RH, 14 days): 97.7%
- Crystal form ([2]; 4500 Lux, 1 month): Crystal form B
- Purity % ([2]; 4500 Lux, 1 month): 97.0%
- Crystal form ([2]; 4500 Lux, 7 days): Crystal form B
- Purity % ([2]; 4500 Lux, 7 days): 97.7%
- Crystal form ([2]; 4500 Lux, 14 days): Crystal form B
- Purity % ([2]; 4500 Lux, 14 days): 97.5%
- Crystal form ([2]; Initial, 0 days): Crystal form B
- Purity % ([2]; Initial, 0 days): 97.7%
- physical and chemical stability (conclusion) [2]: good physical and chemical stability
- Crystal form [3, 15]: Crystal form B
- Purity % [3, 15]: 97.7%
- Crystal form [3, 16]: Crystal form B
- Purity % [3, 16]: 97.7%
- Crystal form [3, 17]: Crystal form B
- Purity % [3, 17]: 97.7%
- Crystal form [3, 18]: Crystal form B
- Purity % [3, 18]: 97.7%
- Crystal form [3, 19]: Crystal form B
- Purity % [3, 19]: 97.7%
- Crystal form [3, 20]: Crystal form B
- Purity % [3, 20]: 97.7%
- Crystal form [3, 21]: Crystal form B
- Purity % [3, 21]: 97.7%
- Crystal form [3, 22]: Crystal form B
- Purity % [3, 22]: 97.7%
- Crystal form [3, 23]: Crystal form B
- Purity % [3, 23]: 97.7%
- physical and chemical stability (conclusion) [3]: good physical and chemical stability
Compound: COCc1ccnc(OCc2c(-c3ccc(O[C@H]4C[C@@H]5CC[C@H](C(=O)O)[C@@H]5C4)c(C)n3)nnn2C)n1 [Crystal form B, (1S,3aS,5S,6aR)-5-((6-(5-(((4-(methoxymethyl)pyrimidin-2-yl)oxy)methyl)-1-methyl-1H-1,2,3-triazol-4-yl)-2-methylpyridin-3-yl)oxy) octahydropentalene-1-carboxylic acid]
